Key:
[1] = system: TNFα production in LPS-stimulated human monocytes; assay: Cot Monocyte TNFα Cell Based Assay; details: Homo sapiens, Monocyte, TNFα in LPS-stimulated human monocytes; read-out: EC50 TNF
Procedure, shortened: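 Percent-of-control values derive from TR-FRET ratios of TNFα in spun-down media, referenced to unstimulated and LPS-stimulated wells. Exposure: 1 h compound preincubation, then 50 pg/ml LPS for 4 h, both at 37 °C, with 0.5% final DMSO.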

[2] = target: T1, human Cot catalytic domain (30-397 amino acids) (Homo sapiens, UniProt P41279); assay: High Throughput Cot Biochemical Assay (KinEASE TR-FRET); details: Cot biochemical HTRF (KinEASE TR-FRET) assay; read-out: IC50 HTRF
T1 construct: Purified recombinant human Cot catalytic domain (30-397 amino acids) was purchased from Cama Biosciences; purchased Cama Biosciences (so in the source)
T1 sequence (P41279 30-397): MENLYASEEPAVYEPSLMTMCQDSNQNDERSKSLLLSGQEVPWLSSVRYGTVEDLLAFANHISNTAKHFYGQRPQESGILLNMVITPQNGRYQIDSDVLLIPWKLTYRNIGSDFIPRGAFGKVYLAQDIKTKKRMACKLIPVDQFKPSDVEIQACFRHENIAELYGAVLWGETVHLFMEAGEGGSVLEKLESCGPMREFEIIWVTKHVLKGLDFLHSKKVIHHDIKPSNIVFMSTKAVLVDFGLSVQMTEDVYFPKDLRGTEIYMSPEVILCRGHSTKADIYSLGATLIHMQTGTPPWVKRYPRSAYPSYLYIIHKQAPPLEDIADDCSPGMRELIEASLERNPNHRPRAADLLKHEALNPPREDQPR
Procedure, shortened: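 Phosphorylation of 1 μM XL665-STK3 peptide by 5 nM Cot catalytic domain was measured by time-resolved FRET using a europium […] antibody. ATP was 400 μM; buffer was 10 mM MOPS pH 7.0 with Mg2+ and DTT.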

Structure (SMILES): CC(C)(C)N1CCC(n2cc([C@@H](Nc3cc(Cl)c4ncc(C#N)c(Nc5ccsc5Cl)c4c3)c3ccccc3)nn2)CC1 [Example 611, (S)-6-(((1-(1-(tert-butyl)piperidin-4-yl)-1H-1,2,3-triazol-4-yl)(phenyl)methyl)amino)-8-chloro-4-((2-chlorothiophen-3-yl)amino)quinoline-3-carbonitrile]
- EC50 [1]: 369 nM
- IC50 [2]: 51 nM

Structure (SMILES): CC(C)(C)N1CCC(n2cc([C@@H](Nc3cc(Cl)c4ncc(C#N)c(Nc5cscc5Cl)c4c3)c3ccccc3)nn2)CC1 [Example 612, (S)-6-(((1-(1-(tert-butyl)piperidin-4-yl)-1H-1,2,3-triazol-4-yl)(phenyl)methyl)amino)-8-chloro-4-((4-chlorothiophen-3-yl)amino)quinoline-3-carbonitrile]
- EC50 [1]: 2020 nM
- IC50 [2]: 84 nM

Structure (SMILES): N#Cc1cnc2c(Cl)cc(N[C@@H](c3ccccc3)c3c[nH]nn3)cc2c1Nc1cccc(Cl)c1F [Example 613, (S)-8-chloro-4-((3-chloro-2-fluorophenyl)amino)-6-((phenyl(1H-1,2,3-triazol-4-yl)methyl)amino)quinoline-3-carbonitrile]
- EC50 [1]: 708 nM
- IC50 [2]: 41 nM

Structure (SMILES): N#Cc1cnc2c(Cl)cc(N[C@@H](c3ccc(Cl)cc3)c3c[nH]nn3)cc2c1Nc1ccc(O)c(Cl)c1 [Example 614, (S)-8-chloro-4-((3-chloro-4-hydroxyphenyl)amino)-6-(((4-chlorophenyl)(1H-1,2,3-triazol-4-yl)methyl)amino)quinoline-3-carbonitrile]
- EC50 [1]: 1110 nM
- IC50 [2]: 123 nM

Structure (SMILES): CC1(Nc2c(C#N)cnc3c(Cl)cc(N[C@@H](c4ccccc4)c4cn(C5CCN(C(C)(C)C)CC5)nn4)cc23)CCCCCC1 [Example 615, (S)-6-(((1-(1-(tert-butyl)piperidin-4-yl)-1H-1,2,3-4-yl)(phenyl)methyl)amino)-8-chloro-4-((1-methylcycloheptyl)amino) quinoline-3-carbonitrile]
- EC50 [1]: 719 nM
- IC50 [2]: 141 nM

Structure (SMILES): CC(C)(C)N1CCC(n2cc([C@@H](Nc3cc(Cl)c4ncc(C#N)c(NCc5ccccc5Cl)c4c3)c3ccccc3)nn2)CC1 [Example 616, (S)-6-(((1-(1-(tert-butyl)piperidin-4-yl)-1H-1,2,3-triazol-4-yl)(phenyl)methyl)amino)-8-chloro-4-((2-chlorobenzyl)amino)quinoline-3-carbonitrile]
- EC50 [1]: 2180 nM
- IC50 [2]: 40 nM

Structure (SMILES): CC(C)(C)N1CCC(n2cc([C@@H](Nc3cc(Cl)c4ncc(C#N)c(NCc5cccc(F)c5F)c4c3)c3ccccc3)nn2)CC1 [Example 617, (S)-6-(((1-(1-(tert-butyl)piperidin-4-yl)-1H-1,2,3-triazol-4-yl)(phenyl)methyl)amino)-8-chloro-4-((2,3-difluorobenzyl)amino)quinoline-3-carbonitrile]
- EC50 [1]: 12300 nM
- IC50 [2]: 43 nM

Structure (SMILES): CC(C)(C)N1CCC(n2cc([C@@H](Nc3cc(Cl)c4ncc(C#N)c(NCc5ccccc5F)c4c3)c3ccccc3)nn2)CC1 [Example 618, (S)-6-(((1-(1-(tert-butyl)piperidin-4-yl)-1H-1,2,3-triazol-4-yl)(phenyl)methyl)amino)-8-chloro-4-((2-fluorobenzyl)amino)quinoline-3-carbonitrile]
- EC50 [1]: 1700 nM
- IC50 [2]: 53 nM

Structure (SMILES): C[C@@H](Nc1c(C#N)cnc2c(Cl)cc(N[C@@H](c3ccccc3)c3cn(C4CCN(C(C)(C)C)CC4)nn3)cc12)c1ccccc1F [Example 619, 6-(((S)-(1-(1-(tert-butyl)piperidin-4-yl)-1H-1,2,3-triazol-4-yl)(phenyl)methyl)amino)-8-chloro-4-(((R)-1-(2-fluorophenyl)ethyl)amino) quinoline-3-carbonitrile]
- EC50 [1]: 826 nM
- IC50 [2]: 16 nM

Structure (SMILES): CNc1cccc([C@H](Nc2cc(Cl)c3ncc(C#N)c(Nc4ccc(F)c(Cl)c4)c3c2)c2cn(C3CCN(C(C)(C)C)CC3)nn2)c1 [Example 620, (S)-6-(((1-(1-(tert-butyl)piperidin-4-yl)-1H-1,2,3-triazol-4-yl)(3-(methylamino)phenyl)methyl)amino)-8-chloro-4-((3-chloro-4-fluorophenyl)amino)quinoline-3-carbonitrile]
- EC50 [1]: 96 nM
- IC50 [2]: 6 nM

— patent publication US10316017B2, “COT modulators and methods of use thereof” (Gilead Sciences, Inc., priority 2015, dated 2019)
